Experimental data published in ChEMBL document CHEMBL3808382, “Discovery and Structure-Activity Relationship of a Bioactive Fragment of ELABELA that Modulates Vascular and Cardiac Functions” (J Med Chem, 2016).
Each block holds one molecule with its values, some of them ahead of it. The source made the active and inactive calls. The rule behind the calls is not given here.

Legend:
[1] = Half life in rat plasma at 37 degC; assay type: ADME, cell-free
Heart [2] = experiment: Inotropic activity in Langendorff perfused Sprague-Dawley rat heart assessed as increase in left ventricular developed pressure; assay type: functional, tissue-based; settings: Heart left ventricle
Plasma = experiment: Drug level in rat plasma treated with ELA at 37 degC after 2 hrs by HPLC-MS analysis; assay type: ADME, cell-free
Rattus norvegicus [3] = experiment: Decrease in urine osmolality in Sprague-Dawley rat at 36 pmol/g/min, iv through 24 hrs infusion relative to control; assay type: functional, organism-based
Heart [4] = experiment: Inotropic activity in Langendorff perfused Sprague-Dawley rat heart assessed as increase in left ventricular developed pressure at 0.03 nM relative to control; assay type: functional; settings: Heart left ventricle
Rattus norvegicus [5] = experiment: Hypotensive activity in anesthetized Sprague-Dawley rat assessed as induction of hypotensive rebound at 6.5 to 293 nmol/kg, iv as bolus dose; assay type: functional, organism-based
Rattus norvegicus [6] = experiment: Decrease in K+ concentration in Sprague-Dawley rat urine at 36 pmol/g/min, iv through 24 hrs infusion relative to control; assay type: functional, organism-based
Rattus norvegicus [7] = experiment: Change in plasma volume in Sprague-Dawley rat at 36 pmol/g/min, iv through 24 hrs infusion measured during compound dosing; assay type: functional, organism-based
Rattus norvegicus [8] = experiment: Change in water intake in Sprague-Dawley rat at 36 pmol/g/min, iv through 24 hrs infusion measured during compound dosing; assay type: functional, organism-based
Rattus norvegicus [9] = experiment: Hypotensive activity in anesthetized Sprague-Dawley rat assessed as maximal change in heart rate at 293 nmol/kg, iv as bolus dose; assay type: functional, organism-based
Rattus norvegicus [10] = experiment: Decrease in Na+ concentration in Sprague-Dawley rat urine at 36 pmol/g/min, iv through 24 hrs infusion relative to control; assay type: functional, organism-based
Rattus norvegicus [11] = experiment: Inotropic activity in Sprague-Dawley rat assessed as induction of left ventricular fractional shortening at 36 pmol/g/min, iv through 24 hrs infusion measured after 6 to 24 hrs by echocardiography; assay type: functional, organism-based; settings: Heart left ventricle
Rattus norvegicus [12] = experiment: Increase in daily urine output in Sprague-Dawley rat at 36 pmol/g/min, iv through 24 hrs infusion measured during compound dosing; assay type: functional, organism-based
Apelin receptor [13] = molecular target: T1, Apelin receptor (Homo sapiens, UniProt P35414); experiment: Agonist activity at human APJ receptor expressed in HEK-293 cells assessed as beta-arrestin2 recruitment after 30 mins by BRET assay; assay type: cell-based, HEK293
T1 sequence (P35414 whole entry): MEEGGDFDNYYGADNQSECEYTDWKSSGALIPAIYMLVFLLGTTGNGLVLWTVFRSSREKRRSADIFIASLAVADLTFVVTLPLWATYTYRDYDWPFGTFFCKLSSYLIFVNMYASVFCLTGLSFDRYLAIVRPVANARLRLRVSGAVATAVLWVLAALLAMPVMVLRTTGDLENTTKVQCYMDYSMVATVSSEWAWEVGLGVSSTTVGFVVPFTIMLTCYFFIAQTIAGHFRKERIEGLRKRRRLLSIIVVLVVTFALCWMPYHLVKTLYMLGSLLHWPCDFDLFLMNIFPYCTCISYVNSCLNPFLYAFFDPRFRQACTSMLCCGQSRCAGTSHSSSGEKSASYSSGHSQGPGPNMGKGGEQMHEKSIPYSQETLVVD

Apelin receptor [14] = molecular target: T1, Apelin receptor; experiment: Agonist activity at human APJ receptor expressed in HEK-293 cells assessed as dissociation of G-alpha-i1 protein after 5 mins by BRET assay; assay type: cell-based, HEK293
Apelin receptor [15] = molecular target: T1, Apelin receptor; experiment: biochemical; assay type: cell-based, HEK293
Rattus norvegicus [16] = experiment: Hypotensive activity in anesthetized Sprague-Dawley rat assessed as drop in mean arterial pressure at 650 nmol/kg, iv as bolus dose; assay type: functional, Artery
Rattus norvegicus [17] = experiment: Hypotensive activity in anesthetized Sprague-Dawley rat at 65 nmol/kg, iv as bolus dose; assay type: functional, organism-based

Molecule: CSCC[C@H](NC(=O)[C@@H]1CSSC[C@H](NC(=O)[C@H](CC(N)=O)NC(=O)[C@H](Cc2c[nH]cn2)NC(=O)[C@H](CCCCN)NC(=O)[C@H](CCCNC(=N)N)NC(=O)[C@H](CC(C)C)NC(=O)[C@@H](N)CCCCN)C(=O)N[C@@H](CC(C)C)C(=O)N[C@@H](CCC(N)=O)C(=O)N[C@@H](CCCNC(=N)N)C(=O)N[C@@H](CCCNC(=N)N)C(=O)N1)C(=O)N1CCC[C@H]1C(=O)N[C@@H](CC(C)C)C(=O)N[C@@H](Cc1c[nH]cn1)C(=O)N[C@@H](CO)C(=O)N[C@@H](CCCNC(=N)N)C(=O)N[C@H](C(=O)N1CCC[C@H]1C(=O)N[C@@H](Cc1ccccc1)C(=O)N1CCC[C@H]1C(=O)O)C(C)C
Drug metabolism (Plasma): metabolite_detected

Molecule: CSCC[C@@H](NC(=O)[C@@H](CS)NC(=O)[C@@H](CCCNC(=N)N)NC(=O)[C@H](CCCNC(=N)N)NC(=O)[C@H]1CCC(=O)N1)C(=O)N1CCC[C@@H]1C(=O)N[C@H](CC(C)C)C(=O)N[C@H](Cc1cnc[nH]1)C(=O)N[C@H](CO)C(=O)N[C@H](CCCNC(=N)N)C(=O)N[C@@H](C(=O)N1CCC[C@@H]1C(=O)N[C@H](Cc1ccccc1)C(=O)N1CCC[C@@H]1C(=O)O)C(C)C
Activity (Rattus norvegicus [3]): Active
Activity (Heart [4]): Active
Activity (Rattus norvegicus [5]): inactive
Activity (Rattus norvegicus [6]): Active
Activity (Rattus norvegicus [7]): inactive
Activity (Rattus norvegicus [8]): inactive
Activity (Rattus norvegicus [9]): Active
Activity (Rattus norvegicus [10]): Active
Activity (Rattus norvegicus [11]): Active
Activity (Rattus norvegicus [12]): Active

Molecule: CSCC[C@H](NC(=O)[C@@H](N)CS)C(=O)N1CCC[C@H]1C(=O)N[C@@H](CC(C)C)C(=O)N[C@@H](Cc1cnc[nH]1)C(=O)N[C@@H](CO)C(=O)N[C@@H](CCCNC(=N)N)C(=O)N[C@H](C(=O)N1CCC[C@H]1C(=O)N[C@@H](Cc1ccccc1)C(=O)N1CCC[C@H]1C(=O)O)C(C)C
Activity (Rattus norvegicus [16]): 10 mmHg

Molecule: CSCC[C@H](NC(=O)[C@H](N)CS)C(=O)N1CCC[C@H]1C(=O)N[C@@H](CC(C)C)C(=O)N[C@@H](Cc1cnc[nH]1)C(=O)N[C@@H](CO)C(=O)N[C@@H](CCCNC(=N)N)C(=O)N[C@H](C(=O)N1CCC[C@H]1C(=O)N[C@@H](Cc1ccccc1)C(=O)N1CCC[C@H]1C(=O)O)C(C)C
Activity (Rattus norvegicus [17]): inactive

Next, values leading:

half-life [1]: < 2 min
EC50 (Heart [2]): 0.0015 nM
Molecule: CSCC[C@H](NC(=O)[C@H](CS)NC(=O)[C@H](CCCNC(=N)N)NC(=O)[C@H](CCCNC(=N)N)NC(=O)[C@@H]1CCC(=O)N1)C(=O)N1CCC[C@H]1C(=O)N[C@@H](CC(C)C)C(=O)N[C@@H](Cc1cnc[nH]1)C(=O)N[C@@H](CO)C(=O)N[C@@H](CCCNC(=N)N)C(=O)N[C@H](C(=O)N1CCC[C@H]1C(=O)N[C@@H](Cc1ccccc1)C(=O)N1CCC[C@H]1C(=O)O)C(C)C

Drug metabolism (Plasma): metabolite_detected
Molecule: H-QRPVNLTMR-OH

EC50 (Apelin receptor [13]): 151 nM
EC50 (Apelin receptor [14]): 6.6 nM
Ki (Apelin receptor [15]): 0.23 nM
Molecule: CSCC[C@H](NC(=O)[C@@H]1CSSC[C@H](N)C(=O)N[C@@H](CC(C)C)C(=O)N[C@@H](CCC(N)=O)C(=O)N[C@@H](CCCNC(=N)N)C(=O)N[C@@H](CCCNC(=N)N)C(=O)N1)C(=O)N1CCC[C@H]1C(=O)N[C@@H](CC(C)C)C(=O)N[C@@H](Cc1cnc[nH]1)C(=O)N[C@@H](CO)C(=O)N[C@@H](CCCNC(=N)N)C(=O)N[C@H](C(=O)N1CCC[C@H]1C(=O)N[C@@H](Cc1ccccc1)C(=O)N1CCC[C@H]1C(=O)O)C(C)C
